In assay [1] the test system is SH-SY5Y cells. In words: Toxicity of Aβ42 alone (LDH release, ATP levels, caspase-3/7 activation, cell viability). It counts as cell-based, human. An excerpt:
To investigate the effect of 2AT and KLT on Aβ42 toxicity, we performed a series of cell-based toxicity experiments in which we examined four toxicity markers—LDH release, changes in ATP levels, caspase-3/7 activation, and cell viability—in SH-SY5Y cells exposed to Aβ42 in the absence or presence of 2AT and KLT. We first identified an Aβ42 concentration that elicits significant toxicity in the absence of 2AT and KLT by exposing SH-SY5Y cells to varying concentrations of Aβ42 and then performing the toxicity assays. The toxicity markers establish that Aβ42 elicits significant toxicity at 6 μM (SI Appendix, Fig. S8). […]
Detailed methods are provided in the Supporting Information. […] X-ray diffraction data for KLT and KLTI were collected on a Rigaku Micromax-007HF X-ray diffractometer with a rotating copper anode, and the X-ray crystallographic phases were determined using molecular replacement and SAD phasing. […] Live-cell fluorescence microscopy was performed on SH-SY5Y cells adhered to an Ibidi µ-Slide eight Well Chamber Slide. The cells were imaged using a Keyence BZ-X810 fluorescence microscope and analyzed using the Hybrid Cell Count application in the BZ-X810 Analyzer software. […]
(LDH leaks from cells whose membrane has failed.)

Assay [2] concerns SH-SY5Y cells. The assay is described as follows: Live-cell fluorescence microscopy of HL647-Aβ42 cellular interaction. It is filed as cell-based, human. The conditions noted are these: 1 μM HL647-Aβ42, absence of 2AT and KLT, 16 h. The protocol:
Fig. 7. The effects of 2AT and KLT on Aβ42 toxicity and cellular interaction (A–D). (A) LDH release assay (B) CellTiter-Glo ATP assay. (C) ApoLive-Glo cell viability assay. (D) ApoLive-Glo caspase-3/7 activation assay. The cell-based assays in A–D were performed by exposing SH-SY5Y cells to 6 μM Aβ42 in the presence of a twofold dilution series of 2AT and KLT for 72 h. All data from the assays are shown as the mean of three technical replicates, with error bars representing the SD. (E–I) Live-cell fluorescence micrographs of SH-SY5Y cells after treatment with 1 μM HiLyte™ Fluor 647-Aβ42 (HL647-Aβ42) in the presence of 0 μM trimer (E) or 2 μM and 4 μM 2AT (F and G) or 2 μM and 4 μM KLT (H and I) for 16 h; (Scale bars, 20 μm.) Fluorescence quantification (FQ), as determined by (total fluorescence of HL647Aβ42)/(total number of cells) is indicated on each micrograph. Dead cells were excluded from the fluorescence quantification analysis and are marked with a white “x”. […]
For these experiments, we exposed SH-SY5Y cells to 1 μM solutions of N-terminally labeled HiLyte™ Fluor 647-Aβ42 (HL647-Aβ42) containing 0 μM, 2 μM, or 4 μM 2AT or KLT and then used live-cell fluorescence microscopy to visualize and quantify HL647-Aβ42 fluorescence on the cells. […]

These results are taken from PMC10235986, “Probing differences among Aβ oligomers with two triangular trimers derived from Aβ” (Proceedings of the National Academy of Sciences of the …, 2023).

As to “Aβ42: full-length β-amyloid peptide Aβ42”, the “concentration that elicits significant toxicity” value in the assay with SH-SY5Y cells [1] was found to be 6 µM. On to “HL647-Aβ42: N-terminally labeled HiLyte Fluor 647-Aβ42”, for which the “cellular localization / uptake of HL647-Aβ42” value in the assay with SH-SY5Y cells [2] is given as “accumulates as punctate features inside the cells”.
